From patent publication US20080069913A1, “Anti-Snoring Composition” (PERSEE MEDICA,, priority 2004, published 2008)

Experiments:
[1] = artificial saliva immersion test; assay type: physicochemical; conditions: membrane covered in mucin, submerged vertically in 2 litres of artificial saliva
Experimental: (§1) Three types of tests were performed: flow measurement on a biological membrane, the test of immersion in artificial saliva and the salting-out test. The rate of flow is the time it takes a given volume of liquid to travel 10 centimetres across a plane tilted at 45°. The saliva immersion test aims to highlight the contact time of the product with the biological membrane when it is subjected to the effect of saliva. Finally, the salting-out test aims to highlight the time it takes the product to salt out a tracer when it is subject to permanent “leaching” by the saliva. These three tests are described in full in the scientific literature and are reference tests for measuring the time a solution remains at its site of action in experimental conditions approximating the physiological conditions of the pharyngeal mucosa.
The aim of the artificial saliva immersion test is to show the contact time of the product with the biological membrane when subjected to the effect of saliva. As before, the product is deposited on the surface of a biological membrane covered in mucin. After flowing over a distance of 10 cm, the plate/biological membrane/product assembly is submerged vertically in a container with 2 litres of artificial saliva. The time the product remains on the surface of the membrane is determined using a chronometer.

[2] = flow time (rate of flow) over 10 cm on a plane tilted at 45°; assay type: physicochemical; conditions: 0.5 ml, plate tilted 45°
Experimental: as §1
The composition (bioadhesive preparation) was examined under experimental conditions to verify its bioadhesive properties and compare them to a non-bioadhesive reference substance (distilled water) and a liposome-based commercial preparation (liposome preparation). The measurements carried out included flow time on a biological membrane and immersion in artificial saliva.
The rate of flow is the time it takes for a given volume of liquid to travel 10 cm over a plane tilted at 45°. This test was performed on 3 levels: • on a 20 cm^2 stainless-steel plate, non-biological membrane; • on a 20 cm^2 stainless-steel plate covered with a cellulose membrane, biological membrane; • on a 20 cm^2 stainless-steel plate covered in a cellulose membrane impregnated with a 5% mucin solution.
For this study, 0.5 ml was deposited 0.5 cm from the top edge of the plate, the deposit being made in horizontal position. The chronometer starting line is located 5 cm from the top edge of the plate when the liquid crosses it after tilting the plate to 45°. In the same way, the chronometer stopping line is located 5 cm from the bottom edge of the plate when the liquid crosses it.

O [Distilled water]
<1″: time the product remains on the surface of the membrane [1] | flow time, Stainless-steel support ([2]; 20 cm^2 stainless-steel plate, non-biological) | flow time, Stainless-steel + membrane + mucin ([2]; cellulose membrane impregnated with 5% mucin solution) | flow time, Stainless-steel + membrane ([2]; stainless-steel plate covered with cellulose membrane)
